Measured values: article PMC9917099, “The Mycotoxin Patulin Inhibits the Mitochondrial Carnitine/Acylcarnitine Carrier (SLC25A20) by Interaction with Cys136 Implications for Human Health” (International Journal of Molecular Sciences, 2023)
Changes are numbered by the printed parent chain.

What was measured:
[1] = molecular target: T1, CAC in intact rat liver mitochondria (Rattus norvegicus, UniProt P97521); test: Treatment of intact rat liver mitochondria, then solubilization, reconstitution in proteoliposomes and carnitine antiport assay; type: biochemical
T1 construct: the native protein extracted from rat liver mitochondria; from tissue; host or cells: rat liver mitochondria (Triton X-100 extract)
T1 sequence (P97521 1-301): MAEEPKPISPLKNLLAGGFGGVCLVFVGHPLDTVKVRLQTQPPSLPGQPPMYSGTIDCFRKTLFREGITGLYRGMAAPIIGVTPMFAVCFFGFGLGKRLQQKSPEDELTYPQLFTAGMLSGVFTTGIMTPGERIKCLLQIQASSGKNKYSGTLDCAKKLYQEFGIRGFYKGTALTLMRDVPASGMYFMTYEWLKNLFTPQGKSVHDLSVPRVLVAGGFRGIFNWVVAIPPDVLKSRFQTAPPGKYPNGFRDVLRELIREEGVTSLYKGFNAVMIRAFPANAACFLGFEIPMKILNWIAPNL
Description: Figure 1 Effect of Patulin on the native carnitine/acylcarnitine carrier (CAC). (A) Dose-response analysis of proteoliposomes reconstituted with the CAC extracted from rat liver mitochondria (0.3 mg of total proteins) and incubated with PAT at the indicated concentrations for 30 min, before measuring the transport activity by adding 0.1 mM [^3H] carnitine for 10 min as described in Materials and Methods. The percentage of residual activity compared to control, without PAT treatment, is reported. The values are the means ± SD from three independent experiments. (B) Rat liver mitochondria (5 mg/100 μL) were incubated or not (control) for 60 min, with Patulin (60 μM) or GSH (5 mM) as indicated. Upon treatment, the unreacted drug was removed by washing the mitochondria in PBS 1X and then 0.3 mg mitochondria were solubilized by 3% TX-100, 10 mM PIPES pH 7.0 and reconstituted in proteoliposomes for transport assay as indicated in (A) and Materials and Methods. Black and white bars indicate without or with the addition of 5 mM dithioerythritol (DTE) 1 min before the transport assay to aliquots of each sample.
The effect of PAT on the CAC at 60 µM concentration was also detected in intact rat liver mitochondria. Upon treatment (60 min), the mitochondria were solubilized in Triton X-100 and 0.3 mg of mitochondrial extract were reconstituted in proteoliposomes for testing the transport activity of CAC (see above). […] Aliquots of intact mitochondria incubated with PAT were treated also with reduced GSH to verify whether this physiological SH-reducing agent was able to reverse the mycotoxin-protein interactions.
The recombinant CAC proteins were reconstituted in proteoliposomes as previously described. Rat liver mitochondria after purification, using the standard procedure of cell disruption and differential centrifugation were solubilized with 3% Triton X-100 in a PIPES buffer (10 mM) at pH 7.0. Herein, the mitochondrial extract (0.3 mg) were reconstituted in the liposomes as above described for the mitochondrial CAC recombinant protein, in the absence of reducing agents. The concentration of intraliposomal carnitine was 15 mM in all samples.
For the transport assay, 550 μL of proteoliposomes were passed through a Sephadex G-75 column in order to remove the external substrate. Six hundred μL of the turbid eluate were collected, divided into samples of 100 μL each, and used for transport measurement by the inhibitor-stop method. Transport was started as homoexchange by adding 0.1 mM [^3H]-carnitine to proteoliposomes containing 15 mM carnitine and, at the indicated time interval, stopped by 1.5 mM NEM (N-ethylmaleimide). The inhibitor was added together with the labelled substrate at time zero in the control samples. After finishing the transport reaction, the external radiolabel substrate was removed by gel filtration chromatography (Sephadex G-75), and the intraliposomal radioactivity was measured by liquid scintillation. Transport was measured at 25 °C. The experimental values were corrected by subtracting the controls. Transport rates were measured in 10 min, i.e., within the initial linear range of the time course.

rat CAC mutant C155S = molecular target: T2, rat CAC mutant C155S (Rattus norvegicus, UniProt P97521, C155S); test: Carnitine antiport in proteoliposomes, CAC mutant C155S; type: biochemical
T2 construct: made in house; host or cells: E. coli C0214 (pMW7, inclusion bodies)
T2 sequence (P97521 1-301 C155S): T1 sequence (P97521 1-301) with C155S
Description: To shed light on the interaction between PAT and CAC and verify if specific Cys residues were involved, transport experiments on the recombinant rat and human WT CAC and CAC’s rat Cys mutants were performed. As in the case of the native protein, transport activities were measured as [^3H]-carnitine/carnitine antiport in proteoliposomes. […] The PAT inhibition of the WT recombinant protein was only slightly greater compared to the native protein, although compounds and other molecular systems that affect the mycotoxin binding to the native CAC were absent (see above). For identifying the residues involved in the PAT interaction, site-directed Cys mutants were tested for inhibition (Figure 2). […]
Figure 2 Dose-response analysis of the PAT inhibition of the CAC recombinant proteins. […] The data are expressed as a percentage of the controls (no PAT addition) and are means ± SD of three independent experiments. […]
For the transport assay, 550 μL of proteoliposomes were passed through a Sephadex G-75 column in order to remove the external substrate. […] After finishing the transport reaction, the external radiolabel substrate was removed by gel filtration chromatography (Sephadex G-75), and the intraliposomal radioactivity was measured by liquid scintillation. Transport was measured at 25 °C. […] Transport rates were measured in 10 min, i.e., within the initial linear range of the time course.

With O=C1C=C2C(=CCOC2O)O1 (stereo not drawn) [PAT, 4-hydroxy-4H-furo [3,2c] pyran-2 [6H] -one] the inhibition at 60 µM ([1]; 60 µM PAT, 60 min, intact rat liver mitochondria, read-out: inhibition of CAC transport activity compared to control) was ~50%, the “recovery of transport activity on addition of GSH after PAT treatment” value ([1]; 60 µM PAT, then 5 mM GSH) was “did not lead to a recovery” and the “reversal of PAT binding by DTE” value ([1]; 5 mM DTE added 1 min before transport assay) was “No reverse binding”. For the same molecule, the “effect of GSH added to mitochondria before PAT incubation on PAT inhibition” value ([1]; 5 mM GSH before 60 µM PAT) was “prevented”, the IC50 ([1]; intact rat mitochondria) was 60 µM and the IC50 (rat CAC mutant C155S) was “comparable to the WT”.
